pEC50: −log10 of the molar value.
What was measured:
Ba/F3-Syk cells = biological target: T1, Ba/F3-Syk cells (Homo sapiens, UniProt P43405); assay: Ba/F3 Proliferation Assay, Ba/F3-Syk cells (Resazurin); type: cell-based; settings: 48-hour incubation
T1 construct: fused on or other part: Possible but unprinted fusion partner: TEL (ETV6), the usual partner for Ba/F3 lines transformed by Syk; Nothing on a partner is printed

[1] = tested on: Ba/F3-WT (wild type) cells; assay: Ba/F3 Proliferation Assay, Ba/F3-WT (wild type) cells with mIL-3 (Resazurin); type: cell-based; settings: Mus musculus, BaF3, 48 h, Ba/F3-WT cells +mIL-3, 48-hour incubation

Row | Compound | pEC50 (Ba/F3-Syk cells) | pEC50 [1]
1 | CCn1ccc(-c2cc3ncccc3c(OC[C@@H]3CNCCO3)n2)c1 [Compound 6.1, 7-(1-ethyl-1H-pyrrol-3-yl)-5-{[(2S)-morpholin-2-yl]methoxy}-1,6-naphthyridine] | 7.41 | 5.58
2 | c1cnc2cc(-c3ccn(C4CCC4)c3)nc(OC[C@@H]3CNCCO3)c2c1 [Compound 6.3, 7-(1-cyclobutyl-1H-pyrrol-3-yl)-5-{[(2S)-morpholin-2-yl]methoxy}-1,6-naphthyridine] | 7.28 | 5.61
3 | c1cnc2cc(-c3ccn(CC4CC4)c3)nc(OC[C@@H]3CNCCO3)c2c1 [Compound 6.4, 7-[1-(cyclopropylmethyl)-1H-pyrrol-3-yl]-5-{[(2S)-morpholin-2-yl]methoxy}-1,6-naphthyridine] | 7.13 | 5.58
4 | FC1(F)CC1n1ccc(-c2cc3ncccc3c(OC[C@@H]3CNCCO3)n2)c1 (stereo partly drawn) [Compound 6.17, 7-[1-(2,2-difluorocyclopropyl)-1H-pyrrol-3-yl]-5-{[(2S)-morpholin-2-yl]methoxy}-1,6-naphthyridine] | 7.10 | 5.62
5 | CC(C)n1ccc(-c2cc3ncccc3c(OC[C@@H]3CNCCCO3)n2)c1 [Compound 6.24, 5-{[(2S)-1,4-oxazepan-2-yl]methoxy}-7-[1-(propan-2-yl)-1H-pyrrol-3-yl]-1,6-naphthyridine] | 7.79 | 5.55
6 | COCCn1ccc(-c2cc3ncccc3c(O[C@H](C)[C@@H]3CNCCO3)n2)c1 [Compound 6.29, 7-[1-(2-methoxyethyl)-1H-pyrrol-3-yl]-5-[(1R)-1-[(2S)-morpholin-2-yl]ethoxy]-1,6-naphthyridine] | 7.51 | 5.84
7 | CCn1ccc(-c2cc3ncccc3c(O[C@H](C)[C@@H]3CNCCO3)n2)c1 [Compound 6.31, 7-(1-ethyl-1H-pyrrol-3-yl)-5-[(1R)-1-[(2S)-morpholin-2-yl]ethoxy]-1,6-naphthyridine] | 7.31 | 5.48
8 | FC1(F)CC(Cn2ccc(-c3cc4ncccc4c(OC[C@@H]4CNCCO4)n3)c2)C1 [Compound 6.42, 7-{1-[(3,3-difluorocyclobutyl)methyl]-1H-pyrrol-3-yl}-5-{[(2S)-morpholin-2-yl]methoxy}-1,6-naphthyridine] | 7.82 | 6.08
9 | c1cnc2cc(-c3cnn([C@H]4CCOC4)c3)nc(OC[C@@H]3CNCCO3)c2c1 [Compound 6.44, 5-{[(2S)-morpholin-2-yl]methoxy}-7-{1-[(3S)-oxolan-3-yl]-1H-pyrazol-4-yl}-1,6-naphthyridine] | 7.48 | < 6.00
10 | c1cnc2cc(-c3cnn([C@@H]4CCOC4)c3)nc(OC[C@@H]3CNCCO3)c2c1 [Compound 6.45, 5-{[(2S)-morpholin-2-yl]methoxy}-7-{1-[(3R)-oxolan-3-yl]-1H-pyrazol-4-yl}-1,6-naphthyridine] | 7.16 | < 6.00
11 | CC(C)n1ccc(-c2cc(OC[C@@H]3CNCCO3)c3cccnc3c2)c1 [Compound 7.1, 5-{[(2S)-morpholin-2-yl]methoxy}-7-[1-(propan-2-yl)-1H-pyrrol-3-yl]quinoline] | 7.32 | 5.56
12 | c1cnc2cc(-c3ccn(C4CCC4)c3)cc(OC[C@@H]3CNCCO3)c2c1 [Compound 7.3, 7-(1-cyclobutyl-1H-pyrrol-3-yl)-5-{[(2S)-morpholin-2-yl]methoxy}quinoline] | 7.13 | 5.54
13 | CC(C)n1ccc(-c2cc(OC[C@@H]3CNCC(C)(C)O3)c3cccnc3c2)c1 [Compound 7.4, 5-{[(2S)-6,6-dimethylmorpholin-2-yl]methoxy}-7-[1-(propan-2-yl)-1H-pyrrol-3-yl]quinoline] | 7.53 | 5.57
14 | CC1(C)CNC[C@@H](COc2cc(-c3ccn(C4CCC4)c3)cc3ncccc23)O1 [Compound 7.5, 7-(1-cyclobutyl-1H-pyrrol-3-yl)-5-{[(2S)-6,6-dimethylmorpholin-2-yl]methoxy}quinoline] | 7.44 | 5.68
15 | FC1(F)CC1n1ccc(-c2cc(OC[C@@H]3CNCCO3)c3cccnc3c2)c1 (stereo partly drawn) [Compound 7.7, 7-[1-(2,2-difluorocyclopropyl)-1H-pyrrol-3-yl]-5-{[(2S)-morpholin-2-yl]methoxy}quinoline] | 7.06 | 5.36
16 | CC1(C)CNC[C@@H](COc2cc(-c3ccn(C4CC4(F)F)c3)cc3ncccc23)O1 (stereo partly drawn) [Compound 7.8, 7-[1-(2,2-difluorocyclopropyl)-1H-pyrrol-3-yl]-5-{[(2S)-6,6-dimethylmorpholin-2-yl]methoxy}quinoline] | 7.71 | 5.49

Next, values leading:

Row | pEC50 (Ba/F3-Syk cells) | pEC50 [1] | Compound
17 | 7.09 | 5.72 | FC(F)Cn1cc(-c2cc3ncccc3c(OC[C@@H]3CNCCO3)n2)cn1 [Compound 6.6, 7-[1-(2,2-difluoroethyl)-1H-pyrazol-4-yl]-5-{[(2S)-morpholin-2-yl]methoxy}-1,6-naphthyridine]
18 | 6.95 | 5.47 | F/C=C\n1cc(-c2cc3ncccc3c(OC[C@@H]3CNCCO3)n2)cn1 [Compound 6.7, 7-{1-[(1Z)-2-fluoroethenyl]-1H-pyrazol-4-yl}-5-{[(2S)-morpholin-2-yl]methoxy}-1,6-naphthyridine]
19 | 6.74 | 5.31 | F/C=C/n1cc(-c2cc3ncccc3c(OC[C@@H]3CNCCO3)n2)cn1 [Compound 6.8, 7-{1-[(1E)-2-fluoroethenyl]-1H-pyrazol-4-yl}-5-{[(2S)-morpholin-2-yl]methoxy}-1,6-naphthyridine]
20 | 7.18 | 6.00 | c1cnc2cc(-c3cnn(CC4CC4)c3)nc(OC[C@@H]3CNCCO3)c2c1 [Compound 6.12, 7-[1-(cyclopropylmethyl)-1H-pyrazol-4-yl]-5-{[(2S)-morpholin-2-yl]methoxy}-1,6-naphthyridine]
21 | 7.84 | 5.74 | CC1(C)CNC[C@@H](COc2nc(-c3ccn(C4CCC4)c3)cc3ncccc23)O1 [Compound 6.14, 7-(1-cyclobutyl-1H-pyrrol-3-yl)-5-{[(2S)-6,6-dimethylmorpholin-2-yl]methoxy}-1,6-naphthyridine]
22 | 7.69 | 5.63 | CC1(C)CNC[C@@H](COc2nc(-c3ccn(CC4CC4)c3)cc3ncccc23)O1 [Compound 6.15, 7-[1-(cyclopropylmethyl)-1H-pyrrol-3-yl]-5-{[(2S)-6,6-dimethylmorpholin-2-yl]methoxy}-1,6-naphthyridine]
23 | 7.44 | 5.48 | CC1(C)CNC[C@@H](COc2nc(-c3ccn(C4CC4(F)F)c3)cc3ncccc23)O1 (stereo partly drawn) [Compound 6.18, 7-[1-(2,2-difluorocyclopropyl)-1H-pyrrol-3-yl]-5-{[(2S)-6,6-dimethylmorpholin-2-yl]methoxy}-1,6-naphthyridine]
24 | 7.90 | 5.82 | CC1(C)CNC[C@@H](COc2nc(-c3cnn(CC4CC4)c3)cc3ncccc23)O1 [Compound 6.21, 7-[1-(cyclopropylmethyl)-1H-pyrazol-4-yl]-5-{[(2S)-6,6-dimethylmorpholin-2-yl]methoxy}-1,6-naphthyridine]
25 | 7.28 | 5.25 | FC(F)Cn1cc(-c2cc3ncccc3c(OC[C@@H]3CNCCCO3)n2)cn1 [Compound 6.27, 7-[1-(2,2-difluoroethyl)-1H-pyrazol-4-yl]-5-{[(2S)-1,4-oxazepan-2-yl]methoxy}-1,6-naphthyridine]
26 | 7.04 | 5.69 | CC[C@@H](C)n1cc(-c2cc3ncccc3c(OC[C@@H]3CNCCO3)n2)cn1 [Compound 6.32, 7-{1-[(2R)-butan-2-yl]-1H-pyrazol-4-yl}-5-{[(2S)-morpholin-2-yl]methoxy}-1,6-naphthyridine]
27 | 7.31 | 5.43 | CC[C@@H](C)n1cc(-c2cc3ncccc3c(OC[C@@H]3CNCC(C)(C)O3)n2)cn1 [Compound 6.33, 7-{1-[(2R)-butan-2-yl]-1H-pyrazol-4-yl}-5-{[(2S)-6,6-dimethylmorpholin-2-yl]methoxy}-1,6-naphthyridine]
28 | 7.04 | 5.68 | CC[C@H](C)n1cc(-c2cc3ncccc3c(OC[C@@H]3CNCCO3)n2)cn1 [Compound 6.34, 7-{1-[(2S)-butan-2-yl]-1H-pyrazol-4-yl}-5-{[(2S)-morpholin-2-yl]methoxy}-1,6-naphthyridine]
29 | 7.63 | 5.64 | CC[C@H](C)n1cc(-c2cc3ncccc3c(OC[C@@H]3CNCC(C)(C)O3)n2)cn1 [Compound 6.35, 7-{1-[(2S)-butan-2-yl]-1H-pyrazol-4-yl}-5-{[(2S)-6,6-dimethylmorpholin-2-yl]methoxy}-1,6-naphthyridine]
30 | 7.09 | 5.86 | CC1(Cn2cc(-c3cc4ncccc4c(OC[C@@H]4CNCCO4)n3)cn2)COC1 [Compound 6.36]
31 | 7.22 | 6.25 | FC1(F)CC(Cn2cc(-c3cc4ncccc4c(OC[C@@H]4CNCCO4)n3)cn2)C1 [Compound 6.37]
32 | 7.59 | 6.01 | CC1(C)CNC[C@@H](COc2nc(-c3cnn(CC4CC(F)(F)C4)c3)cc3ncccc23)O1 [Compound 6.38, 7-{1-[(3,3-difluorocyclobutyl)methyl]-1H-pyrazol-4-yl}-5-{[(2S)-6,6-dimethylmorpholin-2-yl]methoxy}-1,6-naphthyridine]
33 | 7.67 | 5.82 | CC(F)(F)Cn1cc(-c2cc3ncccc3c(OC[C@@H]3CNCC(C)(C)O3)n2)cn1 [Compound 6.39, 7-[1-(2,2-difluoropropyl)-1H-pyrazol-4-yl]-5-{[(2S)-6,6-dimethylmorpholin-2-yl]methoxy}-1,6-naphthyridine]
34 | 7.22 | 5.84 | CC(F)(F)Cn1cc(-c2cc3ncccc3c(OC[C@@H]3CNCCO3)n2)cn1 [Compound 6.40, 7-[1-(2,2-difluoropropyl)-1H-pyrazol-4-yl]-5-{[(2S)-morpholin-2-yl]methoxy}-1,6-naphthyridine]
35 | 7.83 | < 6.00 | CC(F)(F)Cn1ccc(-c2cc3ncccc3c(OC[C@@H]3CNCCO3)n2)c1 [Compound 6.43, 7-[1-(2,2-difluoropropyl)-1H-pyrrol-3-yl]-5-{[(2S)-morpholin-2-yl]methoxy}-1,6-naphthyridine]

— US20250263408A1 (Uniquest Pty Ltd, priority 2022, published 2025)
